Results published in ChEMBL document CHEMBL1201862, “PubChem BioAssay data set” (2004).
Calls of active or inactive are those of the source.

What was measured:
[1] = biological target: G-protein coupled receptor 35 (Homo sapiens, UniProt Q9HC97); assay: SAR Analysis for the identification of Selective Antagonists of ERK1/2 Activity in GPR35-Overexpressing U2OS Cells. [Related pubchem assays: 2079, 2058 ]; assay type: functional, cell-based
[2] = biological target: G-protein coupled receptor 55 (Homo sapiens, UniProt Q9Y2T6); assay: blockers of GPR55 signalling, imaged – imaging, image-based, counter-screen for GPR35 antagonist project, SAR follow-up (AID 2397); assay type: functional
ORF 73 = ORF 73 (Human herpesvirus 8, UniProt O40947); assay: KSHV LANA DNA-binding disruption – biochemical, fluorescence polarization, cherry-picked samples, dose response (AID 504725); design: species or system Human gammaherpesvirus 8;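 also: fluorescence polarization of a labeled DNA duplex reporting LANA DNA binding; potency is for inhibitors that block LANA binding to the DNA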
Beta-lactamase [3] = biological target: Beta-lactamase (Pseudomonas aeruginosa, UniProt Q79MP6);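 also: biochemical dose-response test of metallo-beta-lactamase enzyme inhibition, read out by epi-absorbance; purified recombinant IMP-1 metallo-beta-lactamase with nitrocefin as substrate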
Beta-lactamase [4] = biological target: Beta-lactamase (Salmonella choleraesuis (strain SC-B67), UniProt Q5J463)
Keap1/Nrf2 = Keap1/Nrf2 (Homo sapiens, UniProt Q14145); assay: disruptors of Keap1 binding to Nrf2 peptide – biochemical, fluorescence polarization, cherry-picked samples, dose response (AID 588683)
[5] = Luminescence Cell-Based Dose Retest to Confirm Inhibitors of Cancer Stem Cells. [Related pubchem assays (depositor defined):AID2717, AID2721]; assay type: functional; settings: Homo sapiens
[6] = viability loss of HMLE_sh_eGFP cells – cell-based, luminescence, counter-screen for HMLE_sh_ECad selective toxicity project, dose response (AID 463074); assay type: functional, Homo sapiens;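 also: HMLE human mammary epithelial cells expressing control shRNA against eGFP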
[7] = biological target: DNA dC->dU-editing enzyme APOBEC-3G (Homo sapiens, UniProt Q9HC16); assay: Dose Response confirmation of small molecule APOBEC3G DNA Deaminase Inhibitors via a fluorescence-based single-stranded DNA deaminase assay. [Related pubchem assays (depositor defined):AID493012, AID493028]; assay type: functional
[8] = biological target: T1, Small ubiquitin-related modifier 1 (Homo sapiens, UniProt P63165); assay: SUMO1 protein interaction blockers, potency – biochemical, fluorescence polarization, uHTS hits, dose response (AID 624382); assay type: functional; settings: read-out: IC50_Mean
[9] = biological target: T2, Apoptotic protease-activating factor 1 (Homo sapiens, UniProt O14727); assay: activation of Apaf-1 mediated apoptosis – fluorescent, uHTS hits, dose response (AID 588554); assay type: functional
T2 sequence (O14727 whole entry): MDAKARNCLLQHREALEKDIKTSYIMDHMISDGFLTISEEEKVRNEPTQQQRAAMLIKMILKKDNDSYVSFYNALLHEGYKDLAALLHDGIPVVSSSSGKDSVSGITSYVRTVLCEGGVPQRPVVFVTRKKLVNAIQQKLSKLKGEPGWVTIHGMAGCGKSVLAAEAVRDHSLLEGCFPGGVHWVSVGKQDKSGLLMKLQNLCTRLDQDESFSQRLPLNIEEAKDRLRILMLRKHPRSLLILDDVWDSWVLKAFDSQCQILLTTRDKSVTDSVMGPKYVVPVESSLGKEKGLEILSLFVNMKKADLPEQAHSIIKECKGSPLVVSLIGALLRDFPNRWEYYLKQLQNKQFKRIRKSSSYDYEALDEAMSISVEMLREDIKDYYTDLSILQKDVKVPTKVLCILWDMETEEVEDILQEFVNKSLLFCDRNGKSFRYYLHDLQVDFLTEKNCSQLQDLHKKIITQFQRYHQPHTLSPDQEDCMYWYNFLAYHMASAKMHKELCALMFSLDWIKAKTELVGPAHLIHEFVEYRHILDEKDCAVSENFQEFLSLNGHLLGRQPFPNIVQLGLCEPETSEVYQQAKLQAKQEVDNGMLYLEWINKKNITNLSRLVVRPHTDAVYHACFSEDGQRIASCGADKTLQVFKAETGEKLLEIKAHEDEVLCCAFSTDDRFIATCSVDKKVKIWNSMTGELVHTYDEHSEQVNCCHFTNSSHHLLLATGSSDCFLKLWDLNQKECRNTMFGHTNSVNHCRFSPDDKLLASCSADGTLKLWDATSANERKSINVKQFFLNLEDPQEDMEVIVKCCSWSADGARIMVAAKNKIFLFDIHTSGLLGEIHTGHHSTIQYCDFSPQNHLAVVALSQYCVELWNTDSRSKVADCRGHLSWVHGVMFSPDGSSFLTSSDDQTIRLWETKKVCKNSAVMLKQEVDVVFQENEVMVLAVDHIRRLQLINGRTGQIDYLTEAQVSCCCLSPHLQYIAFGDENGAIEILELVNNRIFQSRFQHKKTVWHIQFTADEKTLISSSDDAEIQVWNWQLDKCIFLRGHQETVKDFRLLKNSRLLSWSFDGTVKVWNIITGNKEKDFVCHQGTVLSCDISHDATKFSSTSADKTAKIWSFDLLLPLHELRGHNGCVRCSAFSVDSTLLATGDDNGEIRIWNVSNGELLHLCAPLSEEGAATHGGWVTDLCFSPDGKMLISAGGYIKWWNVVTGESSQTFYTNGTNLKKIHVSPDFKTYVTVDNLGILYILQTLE

[10] = biological target: T1, Small ubiquitin-related modifier 1; assay: SUMO1 protein-protein binding blockers, potency – biochemical, FRET, dose response (AID 624383); assay type: functional; settings: read-out: IC50_Mean
[11] = biological target: T3, Carboxy-terminal domain RNA polymerase II polypeptide A small phosphatase 1 (Homo sapiens, UniProt Q9GZU7); assay: CTDSP1 inhibitors, concentration-response, biochemical, absorbance readout, ultra-high-throughput screen actives (AID 540297); assay type: functional
T3 sequence (Q9GZU7 whole entry): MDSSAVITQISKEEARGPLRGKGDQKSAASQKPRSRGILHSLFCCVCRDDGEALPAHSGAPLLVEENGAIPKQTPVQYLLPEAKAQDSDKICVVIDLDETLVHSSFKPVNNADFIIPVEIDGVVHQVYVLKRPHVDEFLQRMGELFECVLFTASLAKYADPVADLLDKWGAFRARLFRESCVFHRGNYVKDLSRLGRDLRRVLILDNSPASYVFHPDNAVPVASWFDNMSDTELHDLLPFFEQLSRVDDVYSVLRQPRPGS

[12] = biological target: Bifunctional protein GlmU (Mycobacterium tuberculosis, UniProt P9WMN3); assay: Inhibitors of Mycobacterial Glucosamine-1-phosphate acetyl transferase (GlmU). Secondary screen.; design: species or system Mycobacterium tuberculosis H37Rv
[13] = biological target: DNA (cytosine-5)-methyltransferase 1 (Homo sapiens, UniProt P26358); assay: inhibition of DNA methylation by DNMT1 – biochemical, fluorescent molecular beacon, confirmation (AID 602386); assay type: functional
[14] = biological target: DNA dC->dU-editing enzyme APOBEC-3A (Homo sapiens, UniProt P31941); assay: A3A deaminase inhibition for selectivity – biochemical, dose response (AID 504722); assay type: functional
DNA dC->dU-editing enzyme APOBEC-3A, sequence (P31941 whole entry): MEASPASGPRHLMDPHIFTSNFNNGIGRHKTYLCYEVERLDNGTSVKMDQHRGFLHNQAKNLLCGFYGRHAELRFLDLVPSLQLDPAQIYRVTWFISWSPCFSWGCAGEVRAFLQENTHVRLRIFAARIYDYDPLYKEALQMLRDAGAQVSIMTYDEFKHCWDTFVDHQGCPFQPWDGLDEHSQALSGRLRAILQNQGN

T1 sequence (P63165 whole entry): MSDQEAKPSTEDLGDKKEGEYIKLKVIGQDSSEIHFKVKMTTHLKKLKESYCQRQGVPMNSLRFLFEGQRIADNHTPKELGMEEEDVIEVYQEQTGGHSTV
Beta-lactamase (Pseudomonas aeruginosa, UniProt Q79MP6), sequence (Q79MP6 whole entry): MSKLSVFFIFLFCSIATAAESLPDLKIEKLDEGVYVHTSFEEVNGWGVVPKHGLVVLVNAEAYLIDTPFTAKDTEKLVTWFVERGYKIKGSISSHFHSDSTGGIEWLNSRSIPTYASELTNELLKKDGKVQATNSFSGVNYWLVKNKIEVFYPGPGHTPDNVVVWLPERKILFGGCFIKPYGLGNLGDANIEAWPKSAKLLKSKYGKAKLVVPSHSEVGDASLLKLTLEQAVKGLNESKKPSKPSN
G-protein coupled receptor 55, sequence (Q9Y2T6 whole entry): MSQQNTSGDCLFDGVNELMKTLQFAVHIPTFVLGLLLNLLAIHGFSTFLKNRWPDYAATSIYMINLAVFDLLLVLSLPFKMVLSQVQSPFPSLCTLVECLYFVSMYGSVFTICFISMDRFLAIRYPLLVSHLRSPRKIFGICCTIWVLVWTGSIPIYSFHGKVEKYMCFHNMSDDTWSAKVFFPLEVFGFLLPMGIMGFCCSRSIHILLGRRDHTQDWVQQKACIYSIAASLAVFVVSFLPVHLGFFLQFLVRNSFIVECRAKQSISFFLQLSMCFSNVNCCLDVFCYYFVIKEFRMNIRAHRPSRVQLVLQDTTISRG
DNA (cytosine-5)-methyltransferase 1, sequence (P26358 whole entry): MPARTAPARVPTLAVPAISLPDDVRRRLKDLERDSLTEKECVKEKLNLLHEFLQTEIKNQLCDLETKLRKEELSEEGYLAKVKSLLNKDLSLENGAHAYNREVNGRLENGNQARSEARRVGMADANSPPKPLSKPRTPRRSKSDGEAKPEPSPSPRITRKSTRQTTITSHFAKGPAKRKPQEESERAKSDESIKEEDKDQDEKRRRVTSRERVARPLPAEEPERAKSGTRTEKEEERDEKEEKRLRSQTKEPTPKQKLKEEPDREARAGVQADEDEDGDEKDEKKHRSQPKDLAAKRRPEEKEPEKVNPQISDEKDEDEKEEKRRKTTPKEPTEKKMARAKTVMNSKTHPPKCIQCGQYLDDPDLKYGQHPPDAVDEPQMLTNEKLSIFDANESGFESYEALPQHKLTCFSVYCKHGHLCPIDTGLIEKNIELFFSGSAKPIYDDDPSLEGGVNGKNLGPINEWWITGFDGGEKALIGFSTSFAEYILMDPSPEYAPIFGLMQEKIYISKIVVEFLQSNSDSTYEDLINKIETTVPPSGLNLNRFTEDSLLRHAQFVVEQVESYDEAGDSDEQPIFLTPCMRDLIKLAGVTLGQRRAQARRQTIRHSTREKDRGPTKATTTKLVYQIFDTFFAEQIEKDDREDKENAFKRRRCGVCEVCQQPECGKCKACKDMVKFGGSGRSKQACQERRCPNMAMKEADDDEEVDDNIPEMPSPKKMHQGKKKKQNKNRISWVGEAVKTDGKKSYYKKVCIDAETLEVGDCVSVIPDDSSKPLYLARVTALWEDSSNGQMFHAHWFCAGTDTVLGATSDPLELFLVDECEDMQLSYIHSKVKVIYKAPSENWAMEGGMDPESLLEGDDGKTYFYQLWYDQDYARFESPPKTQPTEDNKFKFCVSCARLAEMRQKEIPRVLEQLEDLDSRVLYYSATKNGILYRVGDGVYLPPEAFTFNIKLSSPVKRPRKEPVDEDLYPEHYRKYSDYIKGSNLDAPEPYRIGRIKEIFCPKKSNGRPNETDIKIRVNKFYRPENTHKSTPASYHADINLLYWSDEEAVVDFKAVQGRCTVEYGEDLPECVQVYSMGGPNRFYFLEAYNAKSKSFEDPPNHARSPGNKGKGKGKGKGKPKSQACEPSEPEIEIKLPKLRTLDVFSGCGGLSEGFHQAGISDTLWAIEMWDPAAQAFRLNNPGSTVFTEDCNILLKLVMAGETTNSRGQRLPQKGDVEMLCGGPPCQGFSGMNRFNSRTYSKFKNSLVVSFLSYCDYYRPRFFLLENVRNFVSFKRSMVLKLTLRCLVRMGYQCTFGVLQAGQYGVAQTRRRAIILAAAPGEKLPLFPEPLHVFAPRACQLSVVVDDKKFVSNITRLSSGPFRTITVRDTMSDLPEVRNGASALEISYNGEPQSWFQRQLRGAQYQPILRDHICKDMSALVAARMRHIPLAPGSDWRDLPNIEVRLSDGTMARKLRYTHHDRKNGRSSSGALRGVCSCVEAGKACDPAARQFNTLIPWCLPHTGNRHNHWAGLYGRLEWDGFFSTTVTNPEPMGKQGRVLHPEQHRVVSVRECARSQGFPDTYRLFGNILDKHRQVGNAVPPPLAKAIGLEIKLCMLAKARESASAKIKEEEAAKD
G-protein coupled receptor 35, sequence (Q9HC97 whole entry): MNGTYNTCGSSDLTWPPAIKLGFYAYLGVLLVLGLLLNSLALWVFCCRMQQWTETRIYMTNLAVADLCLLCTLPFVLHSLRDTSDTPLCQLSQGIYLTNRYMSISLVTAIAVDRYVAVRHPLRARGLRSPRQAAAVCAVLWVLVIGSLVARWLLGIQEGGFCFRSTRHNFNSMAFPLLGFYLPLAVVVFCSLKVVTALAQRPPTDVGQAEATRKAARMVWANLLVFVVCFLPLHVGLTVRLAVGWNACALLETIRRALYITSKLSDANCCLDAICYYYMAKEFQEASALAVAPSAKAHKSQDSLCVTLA
Beta-lactamase (Salmonella choleraesuis (strain SC-B67), UniProt Q5J463), sequence (Q5J463 whole entry): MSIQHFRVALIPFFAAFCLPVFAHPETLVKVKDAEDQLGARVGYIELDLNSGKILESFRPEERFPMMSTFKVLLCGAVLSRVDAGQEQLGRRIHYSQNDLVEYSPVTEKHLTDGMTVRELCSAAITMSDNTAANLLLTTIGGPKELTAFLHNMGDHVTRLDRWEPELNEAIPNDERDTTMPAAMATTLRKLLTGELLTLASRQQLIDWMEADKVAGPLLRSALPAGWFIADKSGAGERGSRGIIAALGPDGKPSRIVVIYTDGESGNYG
ORF 73, sequence (O40947 whole entry): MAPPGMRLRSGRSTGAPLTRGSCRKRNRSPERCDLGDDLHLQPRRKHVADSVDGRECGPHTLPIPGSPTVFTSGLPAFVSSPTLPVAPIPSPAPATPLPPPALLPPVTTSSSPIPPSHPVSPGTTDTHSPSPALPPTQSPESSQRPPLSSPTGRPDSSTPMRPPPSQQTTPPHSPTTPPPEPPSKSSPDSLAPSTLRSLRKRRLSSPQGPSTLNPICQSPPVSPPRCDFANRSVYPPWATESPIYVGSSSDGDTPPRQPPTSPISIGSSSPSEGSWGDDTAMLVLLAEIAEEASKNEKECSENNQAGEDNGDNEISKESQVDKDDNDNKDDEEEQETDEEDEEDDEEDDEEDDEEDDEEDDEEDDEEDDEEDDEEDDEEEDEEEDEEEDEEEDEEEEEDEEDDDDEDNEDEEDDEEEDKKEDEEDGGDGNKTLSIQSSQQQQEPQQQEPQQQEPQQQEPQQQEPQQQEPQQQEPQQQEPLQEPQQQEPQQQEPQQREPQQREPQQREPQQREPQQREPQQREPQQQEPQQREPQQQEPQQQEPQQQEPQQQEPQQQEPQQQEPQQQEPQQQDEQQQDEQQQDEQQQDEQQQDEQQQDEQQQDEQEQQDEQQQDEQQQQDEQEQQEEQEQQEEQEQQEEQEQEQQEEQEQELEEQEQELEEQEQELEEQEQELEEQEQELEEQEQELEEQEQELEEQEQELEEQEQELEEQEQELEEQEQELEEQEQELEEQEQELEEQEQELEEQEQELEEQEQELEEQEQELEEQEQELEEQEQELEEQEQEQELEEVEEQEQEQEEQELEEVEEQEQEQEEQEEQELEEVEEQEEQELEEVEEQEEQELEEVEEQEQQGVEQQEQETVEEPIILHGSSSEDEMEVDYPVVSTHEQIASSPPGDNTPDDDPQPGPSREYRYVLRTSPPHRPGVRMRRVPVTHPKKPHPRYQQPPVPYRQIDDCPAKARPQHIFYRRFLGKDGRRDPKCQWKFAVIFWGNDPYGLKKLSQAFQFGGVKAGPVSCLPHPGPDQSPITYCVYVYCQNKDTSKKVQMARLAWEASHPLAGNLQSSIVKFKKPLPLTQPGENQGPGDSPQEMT
DNA dC->dU-editing enzyme APOBEC-3G, sequence (Q9HC16 whole entry): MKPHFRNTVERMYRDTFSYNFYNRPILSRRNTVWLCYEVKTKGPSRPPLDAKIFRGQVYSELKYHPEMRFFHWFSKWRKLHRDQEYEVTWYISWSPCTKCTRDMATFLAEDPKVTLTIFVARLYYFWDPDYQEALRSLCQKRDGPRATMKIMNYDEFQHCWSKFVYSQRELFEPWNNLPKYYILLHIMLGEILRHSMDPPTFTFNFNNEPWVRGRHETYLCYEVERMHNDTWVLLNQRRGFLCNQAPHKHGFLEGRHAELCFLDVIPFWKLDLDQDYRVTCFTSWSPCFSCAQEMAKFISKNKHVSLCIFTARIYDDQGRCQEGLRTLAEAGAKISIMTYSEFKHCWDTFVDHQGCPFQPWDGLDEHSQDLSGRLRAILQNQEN

Which IC50 [1] does the source give for `CCOc1ccc(NC(=O)CSc2nc3ccsc3c(=O)n2Cc2ccc(C(=O)O)cc2)cc1` here?
The IC50 was 14.5 µM (not active).

And the IC50 [2]?
The IC50 was > 32 µM (inactive).

Which AC50 (ORF 73) does the source give for `Nc1ccc2c3c(cccc13)C(=O)N(c1ccccc1)C2=O` here?
The AC50 was 5.56 µM (active).

What about the IC50 (Beta-lactamase [3]) of the same molecule?
The IC50 was 12.7 µM (inactive).

What about the IC50 (Beta-lactamase [4]) of the same molecule?
Its IC50 is 4.41 µM (active).

What about the AC50 (Keap1/Nrf2) of the same molecule?
Its AC50 is 1.4 µM (active).

With `Oc1ccccc1C1CC(c2cccs2)=NC(c2cccc(Br)c2)N1` (stereo unspecified) as the molecule, how does the AC50 [5] read?
Its AC50 is 21.1 µM (active).

And the AC50 [6]?
Its AC50 is 23.9 µM (active).

Which IC50 [7] does the source give for `C=C(C)C(=O)Nc1cccc(C2=NOC3(C2)C[C@H](C(N)=O)N(C(=O)COc2ccc(Cl)cc2)C3)c1` (stereo partly specified) here?
Its IC50 is 7.21 µM (active).

What about the IC50 [8] of the same molecule?
The IC50 was > 66.6 µM (inactive).

What about the EC50 [9] of the same molecule?
Its EC50 is 4.23 µM (active).

What about the IC50 [10] of the same molecule?
Its IC50 is 1.94 µM (active).

And the IC50 [11]?
Its IC50 is 3.74 µM (active).

What about the IC50 [12] of the same molecule?
The IC50 was 118 µM (active).

And the IC50 [13]?
Its IC50 is 5.52 µM (active).

And the IC50 [14]?
Its IC50 is > 100 µM (inactive).
